According to ChEMBL document CHEMBL5375979, “Chemical, Biochemical, Cellular, and Physiological Characterization of Leucettinib-21, a Down Syndrome and Alzheimer's Disease Drug Candidate” (J Med Chem, 2023):
pIC50: −log10 of the molar value.

Columns and labels:
[1] = molecular target: T1, AP2-associated protein kinase 1 (Homo sapiens, UniProt Q2M2I8); conditions: dose 10.0 µM
Target sequence in this assay (Q2M2I8 whole entry, looked up): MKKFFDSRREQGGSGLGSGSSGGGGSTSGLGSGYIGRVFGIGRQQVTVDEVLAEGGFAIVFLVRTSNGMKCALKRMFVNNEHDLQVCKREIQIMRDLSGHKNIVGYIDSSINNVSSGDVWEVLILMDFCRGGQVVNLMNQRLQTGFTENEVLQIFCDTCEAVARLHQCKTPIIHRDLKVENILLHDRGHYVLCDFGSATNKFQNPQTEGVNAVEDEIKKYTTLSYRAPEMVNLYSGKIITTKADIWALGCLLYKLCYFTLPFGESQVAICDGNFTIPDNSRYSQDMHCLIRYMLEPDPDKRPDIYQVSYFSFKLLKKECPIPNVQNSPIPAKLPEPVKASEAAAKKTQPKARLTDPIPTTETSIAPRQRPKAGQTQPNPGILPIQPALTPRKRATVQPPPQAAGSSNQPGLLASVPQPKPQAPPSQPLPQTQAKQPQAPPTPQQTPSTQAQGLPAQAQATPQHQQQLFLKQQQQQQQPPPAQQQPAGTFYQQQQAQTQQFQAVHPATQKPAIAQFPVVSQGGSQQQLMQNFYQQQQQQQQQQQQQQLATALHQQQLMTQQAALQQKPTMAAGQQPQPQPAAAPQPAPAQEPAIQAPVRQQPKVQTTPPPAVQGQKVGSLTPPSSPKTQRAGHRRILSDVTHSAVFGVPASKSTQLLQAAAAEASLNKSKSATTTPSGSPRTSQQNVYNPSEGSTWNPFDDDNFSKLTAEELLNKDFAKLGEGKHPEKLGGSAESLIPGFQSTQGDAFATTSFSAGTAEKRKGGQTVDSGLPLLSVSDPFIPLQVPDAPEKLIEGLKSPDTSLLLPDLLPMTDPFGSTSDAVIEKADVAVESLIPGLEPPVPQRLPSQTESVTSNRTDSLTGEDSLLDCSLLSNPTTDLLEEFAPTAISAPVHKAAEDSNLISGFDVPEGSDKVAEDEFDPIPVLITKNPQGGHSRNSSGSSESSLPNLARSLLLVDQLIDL

[2] = molecular target: T1, AP2-associated protein kinase 1
Target sequence in this assay (Q2M2I8 whole entry): as the sequence (Q2M2I8 whole entry, looked up) above
Description: Inhibition of human AAK1 assessed as remaining activity by eurofins-cerep kinase profiler analysis

[3] = molecular target: Dual specificity protein kinase CLK1 (Homo sapiens, UniProt P49759); conditions: dose 10.0 µM
Chain of Dual specificity protein kinase CLK1 (P49759 whole entry, looked up): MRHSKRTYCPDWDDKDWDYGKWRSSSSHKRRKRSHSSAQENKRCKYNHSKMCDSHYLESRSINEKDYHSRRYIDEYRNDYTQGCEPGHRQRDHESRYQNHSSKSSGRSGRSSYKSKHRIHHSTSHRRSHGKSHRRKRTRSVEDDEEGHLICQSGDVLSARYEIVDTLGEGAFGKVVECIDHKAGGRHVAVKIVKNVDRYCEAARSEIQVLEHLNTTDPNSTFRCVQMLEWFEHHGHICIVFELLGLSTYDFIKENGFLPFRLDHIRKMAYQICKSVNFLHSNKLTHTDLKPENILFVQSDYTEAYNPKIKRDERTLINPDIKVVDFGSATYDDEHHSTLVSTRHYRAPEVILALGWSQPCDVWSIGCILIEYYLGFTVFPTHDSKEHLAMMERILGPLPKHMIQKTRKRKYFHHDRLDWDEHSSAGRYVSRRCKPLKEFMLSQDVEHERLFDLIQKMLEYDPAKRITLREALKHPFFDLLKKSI

[4] = molecular target: Transcription initiation factor TFIID subunit 1-like (Homo sapiens, UniProt Q8IZX4)
Chain of Transcription initiation factor TFIID subunit 1-like (Q8IZX4 whole entry): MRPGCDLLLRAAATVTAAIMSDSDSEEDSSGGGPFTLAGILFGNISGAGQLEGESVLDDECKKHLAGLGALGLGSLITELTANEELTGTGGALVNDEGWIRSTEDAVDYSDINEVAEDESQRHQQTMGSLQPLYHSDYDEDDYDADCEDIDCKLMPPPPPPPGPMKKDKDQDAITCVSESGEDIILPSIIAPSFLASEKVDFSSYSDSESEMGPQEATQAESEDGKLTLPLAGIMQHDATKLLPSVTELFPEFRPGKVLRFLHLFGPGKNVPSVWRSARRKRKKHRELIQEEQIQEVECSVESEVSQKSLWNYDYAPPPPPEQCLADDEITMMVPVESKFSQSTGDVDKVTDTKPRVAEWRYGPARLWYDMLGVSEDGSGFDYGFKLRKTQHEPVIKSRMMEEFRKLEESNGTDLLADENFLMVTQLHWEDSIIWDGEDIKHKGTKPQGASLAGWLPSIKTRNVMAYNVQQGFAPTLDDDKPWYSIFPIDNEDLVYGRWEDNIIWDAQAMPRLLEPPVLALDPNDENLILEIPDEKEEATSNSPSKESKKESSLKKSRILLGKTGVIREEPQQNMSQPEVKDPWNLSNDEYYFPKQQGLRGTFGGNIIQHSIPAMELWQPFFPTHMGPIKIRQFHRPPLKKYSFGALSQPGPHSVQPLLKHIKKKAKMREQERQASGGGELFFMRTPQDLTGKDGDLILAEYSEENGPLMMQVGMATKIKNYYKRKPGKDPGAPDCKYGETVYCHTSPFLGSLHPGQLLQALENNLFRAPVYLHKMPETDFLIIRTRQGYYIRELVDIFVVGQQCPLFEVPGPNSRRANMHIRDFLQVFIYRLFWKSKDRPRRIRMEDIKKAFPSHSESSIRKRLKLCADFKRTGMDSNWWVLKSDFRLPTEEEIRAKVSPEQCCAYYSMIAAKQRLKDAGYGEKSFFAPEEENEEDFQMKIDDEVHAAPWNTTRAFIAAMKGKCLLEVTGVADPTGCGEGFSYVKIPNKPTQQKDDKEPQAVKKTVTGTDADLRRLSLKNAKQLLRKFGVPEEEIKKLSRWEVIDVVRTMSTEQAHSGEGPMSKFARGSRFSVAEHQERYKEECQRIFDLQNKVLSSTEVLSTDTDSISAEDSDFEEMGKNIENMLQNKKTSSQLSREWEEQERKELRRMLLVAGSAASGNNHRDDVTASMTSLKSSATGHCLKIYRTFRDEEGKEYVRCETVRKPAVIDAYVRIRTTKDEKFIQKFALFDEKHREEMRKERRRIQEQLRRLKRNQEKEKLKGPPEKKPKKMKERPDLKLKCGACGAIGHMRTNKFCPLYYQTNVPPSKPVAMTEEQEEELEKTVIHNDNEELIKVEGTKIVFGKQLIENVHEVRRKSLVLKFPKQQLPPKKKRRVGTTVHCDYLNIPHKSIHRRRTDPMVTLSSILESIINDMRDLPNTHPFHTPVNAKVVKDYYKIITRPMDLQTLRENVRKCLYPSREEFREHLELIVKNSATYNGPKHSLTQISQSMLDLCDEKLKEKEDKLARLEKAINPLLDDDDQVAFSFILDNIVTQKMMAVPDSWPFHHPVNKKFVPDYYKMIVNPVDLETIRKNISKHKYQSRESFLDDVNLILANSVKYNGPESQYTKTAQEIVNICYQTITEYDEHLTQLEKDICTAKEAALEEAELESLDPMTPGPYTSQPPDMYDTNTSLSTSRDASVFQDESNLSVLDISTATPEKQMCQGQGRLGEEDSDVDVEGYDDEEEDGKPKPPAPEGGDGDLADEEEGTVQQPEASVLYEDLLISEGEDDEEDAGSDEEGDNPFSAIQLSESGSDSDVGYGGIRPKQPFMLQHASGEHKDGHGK
Description: Inhibition of human TAF1L assessed as remaining activity by eurofins-cerep kinase profiler analysis

[5] = molecular target: Cyclin-dependent kinase-like 1 (Homo sapiens, UniProt Q00532)
Chain of Cyclin-dependent kinase-like 1 (Q00532 whole entry): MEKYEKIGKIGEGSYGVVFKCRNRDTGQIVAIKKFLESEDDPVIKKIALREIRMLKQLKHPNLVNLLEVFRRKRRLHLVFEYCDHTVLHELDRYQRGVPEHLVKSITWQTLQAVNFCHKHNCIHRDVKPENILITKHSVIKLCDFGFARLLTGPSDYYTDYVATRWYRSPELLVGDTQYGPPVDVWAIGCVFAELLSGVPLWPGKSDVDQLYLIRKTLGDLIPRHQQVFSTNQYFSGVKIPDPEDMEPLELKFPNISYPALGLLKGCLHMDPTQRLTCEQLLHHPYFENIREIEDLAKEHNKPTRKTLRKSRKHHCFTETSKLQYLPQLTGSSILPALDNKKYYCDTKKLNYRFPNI
Description: Inhibition of human CDKL1 assessed as remaining activity by eurofins-cerep kinase profiler analysis

[6] = molecular target: Homeodomain-interacting protein kinase 2 (Homo sapiens, UniProt Q9H2X6)
Description: Inhibition of human HIPK2 assessed as remaining activity by eurofins-cerep kinase profiler analysis

[7] = molecular target: T2, Dual specificity tyrosine-phosphorylation-regulated kinase 3 (Homo sapiens, UniProt O43781)
T2 sequence (O43781 whole entry): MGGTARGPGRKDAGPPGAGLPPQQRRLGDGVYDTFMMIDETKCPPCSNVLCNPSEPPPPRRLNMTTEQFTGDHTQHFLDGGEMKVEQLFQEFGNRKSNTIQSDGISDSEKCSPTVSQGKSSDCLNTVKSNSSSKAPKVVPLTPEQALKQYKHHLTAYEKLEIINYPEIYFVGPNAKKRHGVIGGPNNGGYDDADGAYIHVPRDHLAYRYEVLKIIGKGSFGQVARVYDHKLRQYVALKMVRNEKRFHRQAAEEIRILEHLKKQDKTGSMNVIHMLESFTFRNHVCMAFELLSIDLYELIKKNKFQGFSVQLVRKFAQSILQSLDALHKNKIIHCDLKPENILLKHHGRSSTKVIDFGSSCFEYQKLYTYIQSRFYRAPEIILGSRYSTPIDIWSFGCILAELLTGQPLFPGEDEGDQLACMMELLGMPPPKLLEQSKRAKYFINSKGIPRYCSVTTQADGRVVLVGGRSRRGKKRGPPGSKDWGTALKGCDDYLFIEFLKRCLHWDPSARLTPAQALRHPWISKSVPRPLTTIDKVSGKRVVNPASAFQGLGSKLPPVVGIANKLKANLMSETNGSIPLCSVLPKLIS
Description: Inhibition of human DYRK3 assessed as remaining activity by eurofins-cerep kinase profiler analysis

[8] = molecular target: Dual specificity protein kinase CLK4 (Homo sapiens, UniProt Q9HAZ1)
Chain of Dual specificity protein kinase CLK4 (Q9HAZ1 whole entry): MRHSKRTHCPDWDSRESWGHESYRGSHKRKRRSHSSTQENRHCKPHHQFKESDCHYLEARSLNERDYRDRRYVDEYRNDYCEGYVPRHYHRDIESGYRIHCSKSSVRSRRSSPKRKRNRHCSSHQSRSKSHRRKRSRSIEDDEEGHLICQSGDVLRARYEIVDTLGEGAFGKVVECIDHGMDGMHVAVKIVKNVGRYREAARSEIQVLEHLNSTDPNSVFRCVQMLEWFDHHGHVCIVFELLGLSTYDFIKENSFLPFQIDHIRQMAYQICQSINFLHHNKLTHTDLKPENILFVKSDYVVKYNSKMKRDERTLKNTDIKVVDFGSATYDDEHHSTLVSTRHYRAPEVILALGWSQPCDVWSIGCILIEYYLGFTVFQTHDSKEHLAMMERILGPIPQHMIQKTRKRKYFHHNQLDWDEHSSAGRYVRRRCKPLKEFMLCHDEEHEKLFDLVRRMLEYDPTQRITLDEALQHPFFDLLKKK

[9] = molecular target: Serine/threonine-protein kinase PIM (Homo sapiens) (UniProt P11309+Q9P1W9+Q86V86); conditions: dose 10.0 µM
Myotonin-protein kinase = Myotonin-protein kinase (Homo sapiens, UniProt Q09013)
Chain of Myotonin-protein kinase (Q09013 whole entry): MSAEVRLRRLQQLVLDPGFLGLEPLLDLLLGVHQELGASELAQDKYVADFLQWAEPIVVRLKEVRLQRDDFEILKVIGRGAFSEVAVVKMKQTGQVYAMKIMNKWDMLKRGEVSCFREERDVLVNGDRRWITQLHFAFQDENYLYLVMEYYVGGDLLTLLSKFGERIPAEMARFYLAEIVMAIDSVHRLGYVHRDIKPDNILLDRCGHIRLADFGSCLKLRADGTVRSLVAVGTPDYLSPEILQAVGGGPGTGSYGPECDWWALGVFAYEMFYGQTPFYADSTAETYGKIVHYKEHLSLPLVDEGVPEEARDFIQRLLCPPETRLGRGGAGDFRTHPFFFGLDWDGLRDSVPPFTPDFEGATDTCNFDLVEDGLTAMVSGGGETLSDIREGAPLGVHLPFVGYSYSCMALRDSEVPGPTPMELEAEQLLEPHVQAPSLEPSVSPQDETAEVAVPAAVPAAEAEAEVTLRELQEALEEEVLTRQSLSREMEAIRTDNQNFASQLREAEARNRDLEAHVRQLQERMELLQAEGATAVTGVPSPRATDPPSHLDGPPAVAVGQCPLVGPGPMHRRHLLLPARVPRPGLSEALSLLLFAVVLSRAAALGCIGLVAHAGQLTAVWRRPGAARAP
Description: Inhibition of human DMPK assessed as remaining activity by eurofins-cerep kinase profiler analysis

**Q.** For `COC[C@@H](CC(C)C)NC1=N/C(=C\c2ccc3scnc3c2)C(=O)N1`, which ΔTm [1] is on record?
**A.** Its ΔTm is 6 °C.

**Q.** And the IC50 [2]?
**A.** The IC50 was “Not Active”.

**Q.** What about the ΔTm [3] of the same compound?
**A.** Its ΔTm is 3 °C.

**Q.** What about the pIC50 [4] of the same compound?
**A.** Its pIC50 is under 6.00.

**Q.** And the pIC50 [5]?
**A.** The pIC50 was under 6.00.

**Q.** And the pIC50 [6]?
**A.** Its pIC50 is under 5.00.

**Q.** What about the pIC50 [7] of the same compound?
**A.** The pIC50 was under 6.00.

**Q.** What about the pIC50 [8] of the same compound?
**A.** Its pIC50 is under 6.00.

**Q.** What about the ΔTm [9] of the same compound?
**A.** Its ΔTm is 4.5 °C.

**Q.** And the pIC50 (Myotonin-protein kinase)?
**A.** Its pIC50 is under 6.00.
